B1: recombinant form of the large extracellular loop from CD81: recombinant large extracellular loop of CD81, which binds E2 and acts as a receptor for HCV (protein)
chain: FVNKDQIAKDVKQFYDQALQQAVVDDDANNAKAVVKTFHETLDCCGSSTLTALTTSVLKNNLCPSGSNIISNLFKEDCHQKIDDLFSGK
B2: large extracellular loop of CD9: large extracellular loop of CD9, a related tetraspanin (control) (protein)
chain: SHKDEVIKEVQEFYKDTYNKLKTKDEPQRETLKAIHYALNCCGLAGGVEQFISDICPKKDVLETFTVKSCPDAIKEVFDNKFHI

How the values were obtained:
Assay type in all cases: cell-based, hepatitis C virus
HCVcc (FL-J6/JFH++) = test: Drug inhibition of HCVcc RNA replication in infected Huh-7.5 cells (Taqman); conditions: 48 hour post-infection; Huh-7.5 cells infected with FL-J6/JFH++; HCVcc RNA by Taqman
Experimental: Parallel cultures of Huh-7.5 cells were infected with FL-J6/JFH++ for 6 hours. Following removal of the inocula, cells were washed with PBS and fed with complete growth medium containing the indicated concentrations of antiviral drugs or a DMSO carrier control. RNAs were extracted after 2 days and the amount of accumulated HCVcc RNA quantitated by Taqman.
A panel of experimental HCV antiviral compounds were examined for their ability to inhibit RNA replication at 48 hour post-infection with HCVcc. One of these compounds, 2′-C-methyladenosine (Merck) is a nucleoside analog that inhibits the HCV RNA polymerase. Three other compounds (PI-1, Vertex; BILN2061, Boerhinger Ingelheim; and SCH6, Schering-Plough) target the serine protease activity of NS3 by competitive binding. […] For the polymerase inhibitor, the higher specific activity is likely due to the fact that we measured the accumulation of nascent RNAs post-infection, whereas replicon-based assays examine the decay of RNA after inhibiting established replication. The reduced activities of the protease inhibitors likely reflect reduced affinities of these drugs, developed to genotype 1 proteases, to bind to the JFH NS3 protein.

HCVcc = test: Effect of culture additives on HCVcc production (TCID50 assay)
Experimental: The procedure for immunohistochemical staining for NS5A has been adapted to determine the infectious virus concentration within samples. In one system, virus-containing samples were subjected to serial 10-fold dilutions (typically, 10^−1 to 10^−6) in complete growth medium. Each dilution was then used to infect multiple wells of Huh-7.5 cells seeded in 96-well plates. Following 2 or 3 day incubation, the cells are fixed and subjected to immunohistochemical staining for NS5A expression, as above. The assay plate was then scored for the number of infected wells (i.e. at least one infected cell per well) for each dilution (FIG. 3) and the virus titer was then calculated as the 50% end-point tissue-culture infectious dose per ml (TCID50/ml) according to the statistical method of Reed and Muench (Am. J. Hyg. 27:493-497 (1938)). The sensitivity of this assay was determined by volume of the lowest dilution and the number of replicates tested, and was typically 15.8 TCID50s/ml.
It was of interest to ascertain culturing conditions that increase the titer of infectious HCVcc. A large number of cell culture conditions were tested for their effect on HCVcc production. These included the choice of cell culture media, amount and type of fetal calf serum, as well as the addition of various additive compounds. […] For example, the following titers were recorded: 3.10×10^6 TCID50 (25 mM N-acetylcysteine) vs. 1.06×10^6 TCID50 (5 mM N-acetylcysteine) vs. 2.65×10^5 TCID50 (no N-acetylcysteine). Thus, the use of this compound in HCV-containing cell cultures permits a significant increase in yield of infectious HCVcc. Conditions have also been established for serum-free propagation of Huh-7.5 cells and HCVcc infection and production. These conditions include, but are not limited to, Dulbecco's Modified Eagle's Medium (DMEM)/F12 medium containing 10 μg/ml transferrin, 2 μg/ml insulin, 7.6 μM free fatty acids, 0.3 μM selenium, 0.1 μM hydrocortisone, 0.20% bovine serum albumin, and 20 ng/ml epidermal growth factor.

HCVcc (FL-J6/JFH) = test: Blocking of HCVcc infection of naïve Huh-7.5 by soluble recombinant CD81 or CD9 (NS5A immunostaining); conditions: 10 μg/ml, 1 hour at 37° C., naïve Huh-7.5, day 3
Experimental: A) Independent samples of FL-J6/JFH++ (3.16×10^4 TCID50/ml) were mixed with the indicated amounts of recombinant human monoclonal antibodies (IgGl) against HCV E2 (open circles) or dengue-3 E proteins (filled triangle). Following a 1 hour incubation at 37° C., the virus titers of each sample were determined as described for FIG. 3. Shown are the average±s.d. of three independent samples. The amount of input virus is indicated by the dashed line. B) Samples of FL-J6/JFH were incubated for 1 hour at 37° C. with 10 μg/ml of soluble recombinant CD81 or CD9 and used to infect naïve Huh-7.5. Infections were monitored at day 3 by immunostaining as described in FIG. 2B. C). FL-J6/JFH was used to infect standard HepG2 cells or HepG2 cells engineered to express human CD81. Infections were monitored as described in FIG. 2B.
To further examine the role of E2 in HCVcc entry, virus was preincubated with a recombinant form of the large extracellular loop from CD81, which binds E2 and acts as a receptor for HCV. […] In addition, the role of CD81 in mediating HCVcc entry was examined by infecting HepG2 cells, which lack CD81 expression, or HepG2 cells that have been engineered to express human CD81.

Molecule	ability to inhibit RNA replication post-infection with HCVcc (HCVcc (FL-J6/JFH++))	HCVcc infection after preincubation of virus with recombinant protein (HCVcc (FL-J6/JFH))	further results
C[C@@]1(O)[C@H](O)[C@@H](CO)O[C@H]1n1cnc2c(N)ncnc21 [2′-C-methyladenosine]	inhibited HCVcc replication	–	–
COc1ccc2c(O[C@@H]3C[C@H]4C(=O)N[C@]5(C(=O)O)C[C@H]5/C=C\CCCCC[C@H](NC(=O)OC5CCCC5)C(=O)N4C3)cc(-c3csc(NC(C)C)n3)nc2c1 [BILN2061]	inhibited HCVcc replication	–	–
CC(=O)N[C@@H](CS)C(=O)O [N-acetylcysteine]	–	–	HCVcc titer (HCVcc; 5 mM N-acetylcysteine in culture): 1.06×10^6 TCID50; HCVcc titer (HCVcc; 25 mM N-acetylcysteine in culture): 3.10×10^6 TCID50; levels of HCVcc as determined by TCID50 assay (HCVcc; additive in cell culture): consistently gave higher levels of HCVcc
B1	–	blocked HCVcc infection	–
B2	–	did not	–
